Calls of active or inactive are those of the source. No cut-off for these calls is given here.
Assays:
[1] = biological target: Metabotropic glutamate receptor 1 (Homo sapiens) (UniProt Q13255); test: Antagonist activity at mGluR1 assessed as effect on glutamate-induced response; type: functional; set-up: scale not given: the % may be the effect or the level left
[2] = biological target: T1, Metabotropic glutamate receptor 4 (Homo sapiens, UniProt Q14833); test: Activation of human mGluR4 expressed in CHO cells coexpressing Gqi5 protein assessed as potentiation of glutamate-induced response; type: cell-based
[3] = biological target: T1, Metabotropic glutamate receptor 4; test: Activation of human mGluR4 expressed in CHO cells coexpressing Gqi5 protein assessed as potentiation of glutamate-induced response relative to glutamate alone; type: cell-based; set-up: concentration or dose not given beside the values
[4] = biological target: T1, Metabotropic glutamate receptor 4; test: Activation of human mGluR4 expressed in CHO cells coexpressing Gqi5 protein in absence of glutamate; type: cell-based
[5] = biological target: T1, Metabotropic glutamate receptor 4; test: Activation of human mGluR4 expressed in CHO cells coexpressing Gqi5 protein assessed as fold shifting of glutamate-induced response at 30 uM; type: cell-based
[6] = biological target: Metabotropic glutamate receptor 5 (Homo sapiens) (UniProt P41594); test: Antagonist activity at mGluR5 assessed as effect on glutamate-induced response; type: functional
[7] = biological target: Metabotropic glutamate receptor 2 (Homo sapiens) (UniProt Q14416); test: Antagonist activity at mGluR2 assessed as effect on glutamate-induced response; type: functional
[8] = biological target: Metabotropic glutamate receptor 8 (Homo sapiens) (UniProt O00222); test: Antagonist activity at mGluR8 assessed as effect on glutamate-induced response; type: functional
[9] = biological target: Metabotropic glutamate receptor 7 (Homo sapiens) (UniProt Q14831); test: Antagonist activity at mGluR7 assessed as effect on glutamate-induced response; type: functional
Metabotropic glutamate receptor 7 (Homo sapiens), sequence (Q14831 whole entry): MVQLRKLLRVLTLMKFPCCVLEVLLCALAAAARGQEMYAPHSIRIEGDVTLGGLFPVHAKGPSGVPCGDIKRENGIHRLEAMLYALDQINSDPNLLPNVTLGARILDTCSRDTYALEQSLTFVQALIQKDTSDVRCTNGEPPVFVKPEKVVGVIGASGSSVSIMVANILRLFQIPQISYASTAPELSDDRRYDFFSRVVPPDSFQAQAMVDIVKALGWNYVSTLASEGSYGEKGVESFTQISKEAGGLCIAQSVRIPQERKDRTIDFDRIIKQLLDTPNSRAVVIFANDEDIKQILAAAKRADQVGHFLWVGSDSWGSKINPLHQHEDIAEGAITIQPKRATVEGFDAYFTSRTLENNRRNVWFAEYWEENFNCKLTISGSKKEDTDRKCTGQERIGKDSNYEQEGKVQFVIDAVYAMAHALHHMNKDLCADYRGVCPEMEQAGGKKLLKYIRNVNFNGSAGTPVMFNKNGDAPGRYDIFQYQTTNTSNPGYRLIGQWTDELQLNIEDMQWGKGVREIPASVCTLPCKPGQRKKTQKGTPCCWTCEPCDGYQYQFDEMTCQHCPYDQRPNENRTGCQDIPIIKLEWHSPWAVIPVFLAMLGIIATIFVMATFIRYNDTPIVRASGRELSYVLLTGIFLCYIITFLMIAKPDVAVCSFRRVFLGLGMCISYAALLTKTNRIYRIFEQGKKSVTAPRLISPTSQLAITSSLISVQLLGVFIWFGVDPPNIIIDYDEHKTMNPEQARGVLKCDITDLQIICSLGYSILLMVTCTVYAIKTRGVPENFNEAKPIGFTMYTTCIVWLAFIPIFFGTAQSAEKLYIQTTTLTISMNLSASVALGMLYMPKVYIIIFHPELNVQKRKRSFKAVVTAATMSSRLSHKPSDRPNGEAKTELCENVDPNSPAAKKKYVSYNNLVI

T1 sequence (Q14833 whole entry): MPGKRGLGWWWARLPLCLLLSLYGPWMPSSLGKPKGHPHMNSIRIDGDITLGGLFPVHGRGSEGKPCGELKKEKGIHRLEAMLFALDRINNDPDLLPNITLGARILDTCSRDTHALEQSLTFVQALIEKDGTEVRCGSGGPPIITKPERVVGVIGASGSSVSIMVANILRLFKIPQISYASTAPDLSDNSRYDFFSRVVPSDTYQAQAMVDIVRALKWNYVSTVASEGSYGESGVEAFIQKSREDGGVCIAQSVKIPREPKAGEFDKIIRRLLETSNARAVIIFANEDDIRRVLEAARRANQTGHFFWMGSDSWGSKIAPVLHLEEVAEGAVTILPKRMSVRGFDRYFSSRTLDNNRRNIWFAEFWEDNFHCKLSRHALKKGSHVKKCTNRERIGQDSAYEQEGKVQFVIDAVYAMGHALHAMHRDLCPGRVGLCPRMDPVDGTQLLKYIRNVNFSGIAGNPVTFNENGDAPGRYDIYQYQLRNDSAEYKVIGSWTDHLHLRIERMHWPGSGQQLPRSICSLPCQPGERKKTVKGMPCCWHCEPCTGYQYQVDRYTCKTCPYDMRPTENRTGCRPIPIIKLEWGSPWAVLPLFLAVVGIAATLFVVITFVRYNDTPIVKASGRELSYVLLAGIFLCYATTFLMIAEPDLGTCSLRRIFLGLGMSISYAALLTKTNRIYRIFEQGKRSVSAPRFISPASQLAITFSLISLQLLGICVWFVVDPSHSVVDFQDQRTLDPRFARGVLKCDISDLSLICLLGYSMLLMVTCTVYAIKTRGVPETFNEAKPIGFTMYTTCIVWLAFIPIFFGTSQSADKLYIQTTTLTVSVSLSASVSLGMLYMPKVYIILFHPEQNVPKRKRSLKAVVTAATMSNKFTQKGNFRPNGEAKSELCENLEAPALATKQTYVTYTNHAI
Metabotropic glutamate receptor 1 (Homo sapiens), sequence (Q13255 19-1194 limits assumed): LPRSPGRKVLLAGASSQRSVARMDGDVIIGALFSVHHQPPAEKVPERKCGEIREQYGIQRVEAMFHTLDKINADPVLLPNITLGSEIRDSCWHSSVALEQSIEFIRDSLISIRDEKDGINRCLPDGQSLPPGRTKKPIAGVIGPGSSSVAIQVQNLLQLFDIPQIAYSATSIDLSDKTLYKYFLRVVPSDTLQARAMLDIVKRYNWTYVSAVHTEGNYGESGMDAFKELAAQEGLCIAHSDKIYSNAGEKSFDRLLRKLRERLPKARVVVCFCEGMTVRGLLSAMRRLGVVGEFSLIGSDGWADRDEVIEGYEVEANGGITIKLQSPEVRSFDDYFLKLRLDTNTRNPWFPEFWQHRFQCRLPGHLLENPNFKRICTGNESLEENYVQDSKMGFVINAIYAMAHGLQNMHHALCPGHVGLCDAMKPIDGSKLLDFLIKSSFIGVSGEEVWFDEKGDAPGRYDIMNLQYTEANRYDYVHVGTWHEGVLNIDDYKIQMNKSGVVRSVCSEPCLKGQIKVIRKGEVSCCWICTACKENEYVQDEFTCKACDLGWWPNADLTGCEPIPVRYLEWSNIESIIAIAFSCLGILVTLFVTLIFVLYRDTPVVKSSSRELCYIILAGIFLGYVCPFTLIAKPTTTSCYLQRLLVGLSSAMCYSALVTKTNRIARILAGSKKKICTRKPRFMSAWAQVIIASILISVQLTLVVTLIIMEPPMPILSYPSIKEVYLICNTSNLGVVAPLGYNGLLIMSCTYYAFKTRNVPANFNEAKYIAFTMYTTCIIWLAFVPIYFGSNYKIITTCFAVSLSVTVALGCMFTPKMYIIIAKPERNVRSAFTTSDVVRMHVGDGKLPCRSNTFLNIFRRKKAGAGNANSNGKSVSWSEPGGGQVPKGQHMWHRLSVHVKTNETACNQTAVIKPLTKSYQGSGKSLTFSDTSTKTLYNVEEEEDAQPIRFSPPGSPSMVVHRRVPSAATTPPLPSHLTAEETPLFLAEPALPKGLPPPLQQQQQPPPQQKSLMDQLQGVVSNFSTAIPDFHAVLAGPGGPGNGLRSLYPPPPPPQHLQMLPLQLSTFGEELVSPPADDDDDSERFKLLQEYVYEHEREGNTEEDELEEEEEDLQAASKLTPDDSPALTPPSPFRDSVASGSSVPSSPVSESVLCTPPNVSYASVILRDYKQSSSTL
Metabotropic glutamate receptor 5 (Homo sapiens), sequence (P41594 21-1212 limits assumed): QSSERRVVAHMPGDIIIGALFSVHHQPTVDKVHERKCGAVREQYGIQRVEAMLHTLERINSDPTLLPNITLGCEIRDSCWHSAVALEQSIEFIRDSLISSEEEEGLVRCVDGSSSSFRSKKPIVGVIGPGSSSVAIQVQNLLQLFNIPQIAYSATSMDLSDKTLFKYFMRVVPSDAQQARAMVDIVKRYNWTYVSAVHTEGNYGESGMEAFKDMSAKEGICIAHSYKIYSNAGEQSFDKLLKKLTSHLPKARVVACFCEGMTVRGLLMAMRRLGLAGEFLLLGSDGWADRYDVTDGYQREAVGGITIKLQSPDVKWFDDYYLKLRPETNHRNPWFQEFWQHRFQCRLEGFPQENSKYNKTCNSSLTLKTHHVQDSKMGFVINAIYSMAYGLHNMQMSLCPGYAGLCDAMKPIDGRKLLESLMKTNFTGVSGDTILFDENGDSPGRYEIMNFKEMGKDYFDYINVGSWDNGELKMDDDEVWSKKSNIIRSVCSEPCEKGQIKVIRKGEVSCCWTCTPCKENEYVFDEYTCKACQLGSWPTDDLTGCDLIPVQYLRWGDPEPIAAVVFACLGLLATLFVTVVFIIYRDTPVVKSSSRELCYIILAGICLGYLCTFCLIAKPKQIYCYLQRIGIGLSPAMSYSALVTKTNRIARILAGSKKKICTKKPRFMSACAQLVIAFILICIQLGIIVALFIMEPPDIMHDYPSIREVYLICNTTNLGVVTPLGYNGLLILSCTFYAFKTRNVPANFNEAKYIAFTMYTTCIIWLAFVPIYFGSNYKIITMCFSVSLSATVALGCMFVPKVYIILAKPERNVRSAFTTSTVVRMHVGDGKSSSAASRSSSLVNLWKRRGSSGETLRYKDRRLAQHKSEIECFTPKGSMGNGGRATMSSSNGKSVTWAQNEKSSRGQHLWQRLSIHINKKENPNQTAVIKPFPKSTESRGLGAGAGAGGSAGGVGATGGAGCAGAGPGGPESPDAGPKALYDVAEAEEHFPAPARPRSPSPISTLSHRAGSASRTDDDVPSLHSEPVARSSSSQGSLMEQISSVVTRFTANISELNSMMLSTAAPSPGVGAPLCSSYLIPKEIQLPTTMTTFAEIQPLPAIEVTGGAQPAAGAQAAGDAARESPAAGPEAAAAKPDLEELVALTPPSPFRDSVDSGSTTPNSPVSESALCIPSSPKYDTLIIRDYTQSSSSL
Metabotropic glutamate receptor 8 (Homo sapiens), sequence (O00222 whole entry): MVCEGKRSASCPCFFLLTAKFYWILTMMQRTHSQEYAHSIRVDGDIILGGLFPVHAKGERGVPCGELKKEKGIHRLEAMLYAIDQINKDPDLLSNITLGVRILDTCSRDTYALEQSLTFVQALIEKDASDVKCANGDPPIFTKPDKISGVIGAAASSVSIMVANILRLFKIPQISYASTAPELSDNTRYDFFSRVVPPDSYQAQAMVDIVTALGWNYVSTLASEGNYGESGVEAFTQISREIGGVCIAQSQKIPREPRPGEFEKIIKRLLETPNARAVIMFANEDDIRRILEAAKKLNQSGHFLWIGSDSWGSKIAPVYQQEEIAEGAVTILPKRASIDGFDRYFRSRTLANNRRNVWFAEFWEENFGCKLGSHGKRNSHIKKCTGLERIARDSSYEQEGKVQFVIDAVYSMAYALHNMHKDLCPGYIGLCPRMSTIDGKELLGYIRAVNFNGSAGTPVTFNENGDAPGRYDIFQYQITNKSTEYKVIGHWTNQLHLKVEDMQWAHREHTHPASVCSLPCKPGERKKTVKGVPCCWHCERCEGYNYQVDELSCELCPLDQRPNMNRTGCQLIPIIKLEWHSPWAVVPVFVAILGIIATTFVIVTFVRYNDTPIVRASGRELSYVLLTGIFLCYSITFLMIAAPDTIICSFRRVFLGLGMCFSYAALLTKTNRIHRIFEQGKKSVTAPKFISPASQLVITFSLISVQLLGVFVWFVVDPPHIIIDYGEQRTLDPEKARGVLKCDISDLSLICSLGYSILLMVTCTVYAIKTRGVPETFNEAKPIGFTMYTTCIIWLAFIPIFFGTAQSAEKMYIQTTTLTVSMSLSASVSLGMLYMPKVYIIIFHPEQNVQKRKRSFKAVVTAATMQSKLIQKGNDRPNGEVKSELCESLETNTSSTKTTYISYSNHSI

O=C(Nc1ccccc1)[C@]12C[C@H]1/C(=N\O)c1ccccc1O2
Activity [1]: 30%

COc1ccccc1/C=N/Nc1nc2ccccc2nc1C
Activity [2]: inactive

Cc1nc2ccccc2nc1N/N=C/c1ccccc1O
Activity [3]: 57% | EC50 [2]: 4.1 µM

CC(c1ccccc1)C1Nc2ccccc2C(=O)N1c1cccc(F)c1 (stereo not given)
Activity [3]: 87% | EC50 [2]: > 10 µM

Cc1nc2ccccc2nc1N/N=C/c1cccc(O)c1
Activity [3]: 136% | EC50 [2]: 2.4 µM

Cc1ccc(N2C(=O)c3ccccc3NC2C(C)c2ccccc2)cc1 (stereo not given)
Activity [3]: 129% | EC50 [2]: 3 µM

Cc1nc2ccccc2nc1N/N=C/c1ccccc1
Activity [3]: 129% | EC50 [2]: 4.4 µM

Cc1nc2ccccc2nc1N/N=C/c1ccc(F)cc1
Activity [3]: 87% | EC50 [2]: > 5 µM

Cc1nc2ccccc2nc1N/N=C/c1ccc(O)cc1
Activity [4]: inactive | Activity [3]: 144% | EC50 [2]: 1.7 µM | fold change (FC) [5]: 36 | Activity [6]: inactive | Activity [7]: inactive | Activity [1]: inactive | Activity [8]: inactive | Activity [9]: inactive

COC(=O)c1ccc(N2C(=O)c3ccccc3NC2C(C)c2ccccc2)cc1 (stereo not given)
Activity [3]: 69% | EC50 [2]: > 10 µM

— ChEMBL document CHEMBL1143275, “Positive allosteric modulators of the metabotropic glutamate receptor subtype 4 (mGluR4). Part II: Challenges in hit-to-lead” (Bioorg Med Chem Lett, 2009)
